# Patent US20220009906A1, “ISOINDOLIN-1-ONE DERIVATIVES USEFUL AS GRK2 INHIBITORS” (priority 2020, published 2022)
# Target: T1, GRK2 (Homo sapiens, UniProt P25098)
# T1 sequence (P25098 1-689): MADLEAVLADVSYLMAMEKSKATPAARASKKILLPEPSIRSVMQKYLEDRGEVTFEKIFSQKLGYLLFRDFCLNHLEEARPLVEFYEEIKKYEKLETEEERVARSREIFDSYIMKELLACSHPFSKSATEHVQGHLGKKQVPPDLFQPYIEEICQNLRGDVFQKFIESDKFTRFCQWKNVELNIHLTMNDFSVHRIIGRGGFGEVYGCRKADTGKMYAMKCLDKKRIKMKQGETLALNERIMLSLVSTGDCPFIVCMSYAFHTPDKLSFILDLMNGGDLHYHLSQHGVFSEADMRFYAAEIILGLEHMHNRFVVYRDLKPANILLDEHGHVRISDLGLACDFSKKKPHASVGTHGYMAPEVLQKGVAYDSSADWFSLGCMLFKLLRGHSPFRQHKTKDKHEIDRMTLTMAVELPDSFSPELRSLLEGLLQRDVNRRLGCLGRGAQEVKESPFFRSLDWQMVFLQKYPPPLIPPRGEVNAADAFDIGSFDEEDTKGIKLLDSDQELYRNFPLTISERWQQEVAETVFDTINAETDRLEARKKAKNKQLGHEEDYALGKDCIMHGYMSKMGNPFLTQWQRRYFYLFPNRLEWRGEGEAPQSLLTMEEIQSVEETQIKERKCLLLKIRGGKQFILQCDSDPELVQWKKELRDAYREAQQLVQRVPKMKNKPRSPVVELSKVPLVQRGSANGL
# Assay: hGRK2 LANCE Ultra In Vitro Assay
# Assay type: biochemical
# Details: Biological Example 1 GRK2 Lancer IC50 (μM), 10 nM GRK2; 30 or 600 μM ATP (not stated which); multiple measurements listed individually
# Method: hGRK2 LANCE Ultra In Vitro Assay
# G-protein coupled receptor kinases (GR Kinases) desensitize activated G-protein coupled receptors (GPCRs), by phosphorylation of cytoplasmic loops or carboxyl-terminal tails of GPCRs. GRK2 is one of the 6 different GR kinases and is implicated in heart failure and diabetes.
# This assay is sensitive and requires as low as 10 nM enzyme, in a total volume of 10 μL. In addition, the ATP concentration can be varied over a broad range, without interfering with the assay or changing the assay condition. […] Testing inhibitors routinely at both high and low ATP concentrations also enables identification of potential non-ATP competitive inhibitors.
# Paroxetine was used as the reference compound in this assay.
# Test compounds were dissolved in DMSO at 1 mM and were 3-fold serial diluted. The compound DMSO solutions were then added (100 nL) into a plate well using an acoustic dispenser. To each well was then added 20 nM GRK2 (5 μL) in assay buffer (20 mM HEPES, pH 7.5, 10 mM MgCl2, 0.001% Tween-20®). The plate was sealed and centrifuged at 1000 rpm for 1 min. The plate and wells containing a mixture of GRK2 and test compound were incubated at ambient temperature for 30 min (prior to initializing the enzymatic reaction).
# Enzyme reactions were initiated by the addition of 4.9 μL Substrates/Eu-Ab mix to each well. […] Final concentrations of reagents in the assays were as follows: 20 mM HEPES, pH 7.5; 10 mM MgCl2; 0.001% Tween-20® (w/v); 30 or 600 μM ATP; 200 nM ULight-peptide; 4 nM Eu-Ab; 10 nM GRK2; and 1% DMSO.
# The plates were sealed and centrifuged at 1000 rpm for 1 min. For reactions at low ATP concentration (30 μM), reaction mixtures were incubated at ambient temperature for 120 min. For reactions at high ATP concentration (600 μM), reaction mixtures were incubated at ambient temperature for 60 min.
# The enzyme reactions were quenched by addition of 10 μL of 12 mM EDTA in 1× LANCE detection solution to each well. The plates were then incubated at ambient temperature for 30 min. Time-resolved fluorescence signal of reactions were read on an EnVision or PHERAstar plate reader with the following parameters: Excitation wavelength=337 nm; emission wavelength (donor)=620 nm; emission wavelength (acceptor)=665 nm.
# The raw HTRF data were converted to % active as follows:
# % active=(sample−NC)/(PC−NC)*100
# where NC is the mean of negative control (reactions without GRK2), and PC is the mean of positive control (reactions with GRK2 but without inhibitor). IC50 values were determined from a 4-parameter fit, using the following equation:
# Y=Bottom+(Top−Bottom)/(1+10^((Log IC50−X)*Hill slope))
# where X=log10 of the compound concentration.
row,SMILES,IC50 [µM]
1,CC(c1cccc(Oc2ccccc2)c1)N1Cc2ccc(-c3cn[nH]c3)cc2C1=O (stereo not drawn) [Compound 104],> 11
2,"COc1cccc(CN2C(=O)c3cc(-c4cn[nH]c4)ccc3C23CCc2c(O)cccc23)c1 (stereo not drawn) [Compound 89, 4-hydroxy-2′-(3-methoxybenzyl)-5′-(1H-pyrazol-4-yl)-2,3-dihydrospiro[indene-1,1′-isoindolin]-3′-one]",0.144
3,"COc1cccc(CN2C(=O)c3cc(-c4cn[nH]c4)ccc3C23CCC(C(N)=O)C3)c1 (stereo not drawn) [Compound 108, 2′-(3-methoxybenzyl)-3′-oxo-5′-(1H-pyrazol-4-yl)spiro[cyclopentane-1,1′-isoindoline]-3-carboxamide]",0.004
4,"COc1cccc(CN2C(=O)c3cc(-c4cn[nH]c4)ccc3C23CCC2NC(=O)OC23)c1 (stereo not drawn) [Compound 150, 2′-(3-methoxybenzyl)-5′-(1H-pyrazol-4-yl)-3a,4,5,6a-tetrahydrospiro[cyclopenta[d]oxazole-6,1′-isoindoline]-2,3′(3H)-dione]",0.013
5,"O=C1c2cc(-c3cn[nH]c3)ccc2CN1Cc1cccc(OCc2nn[nH]n2)c1 [Compound 88, 2-(3-((2H-Tetrazol-5-yl)methoxy)benzyl)-6-(1H-pyrazol-4-yl)isoindolin-1-one]",0.029
6,"COc1cccc(CN2C(=O)c3cc(-c4cn[nH]c4)ccc3C23CCC2OC(=O)NC23)c1 (stereo not drawn) [Compound 151, 2′-(3-methoxybenzyl)-5′-(1H-pyrazol-4-yl)-3a,5,6,6a-tetrahydrospiro[cyclopenta[d]oxazole-4,1′-isoindoline]-2,3′(3H)-dione]",0.011
7,"COC(=O)NC1CCC2(C1)c1ccc(-c3cn[nH]c3)cc1C(=O)N2Cc1cccc(OC)c1 (stereo not drawn) [Compound 109, methyl (2′-(3-methoxybenzyl)-3′-oxo-5′-(1H-pyrazol-4-yl)spiro[cyclopentane-1,1′-isoindolin]-3-yl)carbamate]",0.006
8,"COc1cccc(C(CO)N2Cc3c(cc(-c4cn[nH]c4)cc3-c3cccnc3)C2=O)c1 (stereo not drawn) [Compound 142, 2-(2-hydroxy-1-(3-methoxyphenyl)ethyl)-6-(1H-pyrazol-4-yl)-4-(pyridin-3-yl)isoindolin-1-one]",0.008
9,"COc1cccc(C(CO)N2Cc3ccc(-c4cn[nH]c4)cc3C2=O)c1 (single isomer, unassigned) [Compound 113, 2-[(1S*)-2-hydroxy-1-(3-methoxyphenyl)ethyl]-6-(1H-pyrazol-4-yl)isoindolin-1-one]",0.003
10,"COc1cccc(CN2Cc3ccc(-n4cn[nH]c4=O)cc3C2=O)c1 [Compound 44, 2-(3-methoxybenzyl)-6-(5-oxo-1,5-dihydro-4H-1,2,4-triazol-4-yl)isoindolin-1-one]",0.382
11,"COc1cccc([C@@H](C)N2Cc3c(cc(-c4cn[nH]c4)cc3-c3ccnc(C(C)(C)C)c3)C2=O)c1 [Compound 154, (R)-4-(2-(tert-butyl)pyridin-4-yl)-2-(1-(3-methoxyphenyl)ethyl)-6-(1H-pyrazol-4-yl)isoindolin-1-one]",0.932
12,COc1cccc([C@@H](C)N2C(=O)c3cc(-c4cn[nH]c4)ccc3C23CCC(O)C3)c1 (mixture of isomers) [Compound 173],0.092
13,"COc1cccc(C(CCC(=O)O)N2Cc3ccc(-c4cn[nH]c4)cc3C2=O)c1 (stereo not drawn) [Compound 117, 4-(3-methoxyphenyl)-4-(1-oxo-6-(1H-pyrazol-4-yl)isoindolin-2-yl)butanoic acid]",0.404
14,O=C(O)COc1cccc(CN2Cc3ccc(-c4ccnc5[nH]ccc45)cc3C2=O)c1 [Compound 57],2.56
15,"COc1cccc(C(CO)N2C(=O)c3cc(-c4cn[nH]c4)ccc3C23CC=CC3)c1 (stereo not drawn) [Compound 78, 2′-(2-hydroxy-1-(3-methoxyphenyl)ethyl)-5′-(1H-pyrazol-4-yl)spiro[cyclopentane-1,1′-isoindolin]-3-en-3′-one]",0.06
16,"COc1cccc([C@@H](C)N2Cc3c(cc(-c4cn[nH]c4)cc3-c3cccnc3N)C2=O)c1 [Compound 125, (R)-4-(2-aminopyridin-3-yl)-2-(1-(3-methoxyphenyl)ethyl)-6-(1H-pyrazol-4-yl)isoindolin-1-one]",0.022
17,"COC(=O)NC1CCCC12c1ccc(-c3cn[nH]c3)cc1C(=O)N2Cc1cccc(OC)c1 (stereo not drawn) [Compound 115, Methyl (2′-(3-methoxybenzyl)-3′-oxo-5′-(1H-pyrazol-4-yl)spiro[cyclopentane-1,1′-isoindolin]-2-yl)carbamate]",0.177
18,"COc1cccc([C@@H](C)N2Cc3c(cc(-c4cn[nH]c4)cc3-c3ccc(C(F)(F)F)nc3)C2=O)c1 [Compound 145, (R)-2-(1-(3-methoxyphenyl)ethyl)-6-(1H-pyrazol-4-yl)-4-(6-(trifluoromethyl)pyridin-3-yl)isoindolin-1-one]",0.285
19,CC(=O)OCC(=O)Oc1cccc(CN2Cc3ccc(-c4cn[nH]c4)cc3C2=O)c1 [Compound 138],0.002
20,"COc1cccc(CN2C(=O)c3cc(-c4cn[nH]c4)ccc3C2(CCO)CCO)c1 [Compound 41, 3,3-bis(2-hydroxyethyl)-2-(3-methoxybenzyl)-6-(1H-pyrazol-4-yl)isoindolin-1-one]",0.034
21,"COc1cccc([C@@H](C)N2C(=O)c3cc(-c4cn[nH]c4)ccc3[C@@H]2CC(=O)O)c1 (single isomer, unassigned) [Compound 97]",0.012
22,"COc1cccc([C@@H](C)N2Cc3c(cc(-c4cn[nH]c4)cc3-c3ccc(OC)nc3)C2=O)c1 [Compound 127, (R)-2-(1-(3-methoxyphenyl)ethyl)-4-(6-methoxypyridin-3-yl)-6-(1H-pyrazol-4-yl)isoindolin-1-one]",0.047
23,"CCOc1cccc(C(CO)N2Cc3ccc(-c4cn[nH]c4)cc3C2=O)c1 (stereo not drawn) [Compound 53, 2-(2-Hydroxy-1-(3-ethoxyphenyl)ethyl)-6-(1H-pyrazol-4-yl)isoindolin-1-one]",0.008
24,"COc1cccc(CN2C(=O)c3cc(-c4cn[nH]c4)ccc3C23CCOCC3)c1 [Compound 82, 2-(3-methoxybenzyl)-5-(1H-pyrazol-4-yl)-2′,3′,5′,6′-tetrahydrospiro[isoindoline-1,4′-pyran]-3-one]",0.007
25,"COc1cccc([C@@H](C)N2Cc3c(cc(-c4cn[nH]c4)cc3N3CCN(C)CC3)C2=O)c1 [Compound 156, (R)-2-(1-(3-methoxyphenyl)ethyl)-4-(4-methylpiperazin-1-yl)-6-(1H-pyrazol-4-yl)isoindolin-1-one]",0.011
26,CCOc1cccc(C(C(=O)O)N2Cc3ccc(-c4ccncc4)cc3C2=O)c1 (stereo not drawn) [Compound 77],> 20
27,"COc1cccc(CN2C(=O)c3cc(-c4cn[nH]c4)ccc3C2CC(=O)O)c1 (stereo not drawn) [Compound 61, 2-(2-(3-Methoxybenzyl)-3-oxo-5-(1H-pyrazol-4-yl)isoindolin-1-yl)acetic acid]",0.012
28,"COc1cccc([C@@H](C)N2Cc3c(cc(-c4cn[nH]c4)cc3-c3cc(C)nc(C)c3)C2=O)c1 [Compound 132, (R)-4-(2,6-dimethylpyridin-4-yl)-2-(1-(3-methoxyphenyl)ethyl)-6-(1H-pyrazol-4-yl)isoindolin-1-one]",0.005
29,O=C1c2cc(-c3cn[nH]c3)ccc2CN1Cc1cccc(OC2CCOC2)c1 (stereo not drawn) [Compound 90],0.137
30,COc1cccc(C(C(=O)N(C)C)N2Cc3ccc(-c4cn[nH]c4)cc3C2=O)c1 (stereo not drawn) [Compound 168],0.146
